From ChEMBL document CHEMBL5620397, “Design, synthesis and biological evaluation of 3-substituted-2-thioxothiazolidin-4-one (rhodanine) derivatives as antitubercular agents against Mycobacterium tuberculosis protein tyrosine phosphatase B” (Eur J Med Chem, 2023)
In brackets after ≈: the same amount, converted by molar mass.

Legend:
[1] = biological target: T1, Triple specificity protein phosphatase PtpB (Mycobacterium tuberculosis (strain ATCC 25618 / H37Rv)) (UniProt I6WXK4); assay: Inhibition of Mycobacterium tuberculosis H37Rv ptpB expressed in Escherichia coli BL21(DE3) at 10 uM using pNPP as substrate preincubated for 10 mins followed by substrate addition and measured for 5 mins by spectrophotometer analysis relative to control; conditions: time 15.0 min
T1 sequence (whole entry): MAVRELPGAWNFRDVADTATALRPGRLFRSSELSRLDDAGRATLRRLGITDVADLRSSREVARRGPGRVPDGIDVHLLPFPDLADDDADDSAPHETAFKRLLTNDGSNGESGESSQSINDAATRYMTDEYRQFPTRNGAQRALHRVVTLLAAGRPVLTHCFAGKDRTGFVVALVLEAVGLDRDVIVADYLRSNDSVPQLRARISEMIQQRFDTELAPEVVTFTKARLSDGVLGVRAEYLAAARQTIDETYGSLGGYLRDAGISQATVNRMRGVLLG

[2] = biological target: T2, Triple specificity protein phosphatase PtpB (Mycobacterium tuberculosis (strain ATCC 25618 / H37Rv), UniProt I6WXK4); assay: Inhibition of Mycobacterium tuberculosis H37Rv ptpB expressed in Escherichia coli BL21(DE3) using pNPP as substrate preincubated for 10 mins followed by substrate addition and measured for 5 mins by spectrophotometer analysis
T2 sequence (I6WXK4 whole entry): T1 sequence (whole entry)

[3] = biological target: T3, Tyrosine-protein phosphatase non-receptor type 1 (Homo sapiens, UniProt P18031); assay: Inhibition of recombinant human PTP1B using pNPP as substrate preincubated for 5 mins followed by substrate addition and measured for 10 mins; assay type: toxicity
T3 sequence (P18031 whole entry): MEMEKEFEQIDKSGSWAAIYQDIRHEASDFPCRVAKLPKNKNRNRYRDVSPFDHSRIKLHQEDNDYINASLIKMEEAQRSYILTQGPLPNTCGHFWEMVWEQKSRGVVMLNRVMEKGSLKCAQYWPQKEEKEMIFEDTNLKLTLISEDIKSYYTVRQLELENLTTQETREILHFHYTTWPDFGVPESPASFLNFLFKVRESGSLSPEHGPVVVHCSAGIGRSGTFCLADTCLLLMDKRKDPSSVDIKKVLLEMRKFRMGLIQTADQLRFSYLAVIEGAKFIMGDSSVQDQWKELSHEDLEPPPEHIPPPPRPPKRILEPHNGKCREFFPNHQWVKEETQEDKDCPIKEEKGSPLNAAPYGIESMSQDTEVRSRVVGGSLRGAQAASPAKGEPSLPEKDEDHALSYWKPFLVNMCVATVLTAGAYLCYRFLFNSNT

[4] = biological target: T1, Triple specificity protein phosphatase PtpB (Mycobacterium tuberculosis (strain ATCC 25618 / H37Rv)); assay: Inhibition of Mycobacterium tuberculosis H37Rv ptpB expressed in Escherichia coli BL21(DE3) at 50 uM using pNPP as substrate preincubated for 10 mins followed by substrate addition and measured for 5 mins by spectrophotometer analysis relative to control; conditions: time 15.0 min
[5] = Metabolic stability in human liver microsomes assessed as substrate remaining preincubated for 5 mins followed by NADPH addition and measured upto 30 mins by LC-MS/MS assay; assay type: ADME, Microsome; conditions: time < 35 min, read-out: Stability
[6] = Metabolic stability in mouse liver microsomes assessed as half life preincubated for 5 mins followed by NADPH addition and measured upto 30 mins by LC-MS/MS assay; assay type: ADME, Microsome; conditions: time < 35 min
[7] = Metabolic stability in mouse liver microsomes assessed as substrate remaining preincubated for 5 mins followed by NADPH addition and measured upto 30 mins by LC-MS/MS assay; assay type: ADME, Microsome; conditions: time < 35 min, read-out: Stability
[8] = tested on: Mycobacterium tuberculosis; assay: Antituberculosis activity against Mycobacterium tuberculosis H37Rv in mouse J774A.1 cells assessed as reduction in intracellular bacterial burden measured after 21 days by agar plate method; assay type: functional, organism-based; conditions: J774.A1, dose 1-10 µg/ml, time 21.0 day
[9] = biological target: T4, Low molecular weight protein-tyrosine phosphatase A (Mycobacterium tuberculosis) (UniProt P9WIA1); assay: Inhibition of Mycobacterium tuberculosis H37Rv ptpA expressed in Escherichia coli BL21(DE3) at 10 uM using pNPP as substrate preincubated for 10 mins followed by substrate addition and measured for 5 mins by spectrophotometer analysis relative to control; conditions: time 15.0 min
T4 sequence (whole entry): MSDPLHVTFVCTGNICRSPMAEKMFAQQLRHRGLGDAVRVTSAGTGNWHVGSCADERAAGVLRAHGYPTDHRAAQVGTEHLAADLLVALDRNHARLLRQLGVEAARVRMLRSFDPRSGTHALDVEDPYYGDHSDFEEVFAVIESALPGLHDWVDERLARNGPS

[10] = tested on: Mycobacterium tuberculosis; assay: Antituberculosis activity against Mycobacterium tuberculosis H37Rv by microplate alamar blue assay; assay type: functional
[11] = Cytotoxicity against mouse J774.G8 cells after 48 hrs by MTT assay; assay type: functional, cell-based; conditions: J774.G8, 48 h
[12] = Metabolic stability in human liver microsomes assessed as intrinsic clearance per mg protein preincubated for 5 mins followed by NADPH addition and measured upto 30 mins by LC-MS/MS assay; assay type: ADME, Microsome; conditions: time < 35 min, read-out: CLH
Vero = assay: cells; conditions: Chlorocebus sabaeus, 48 h
Description: Cytotoxicity against african green monkey Vero cells after 48 hrs by MTT assay

[13] = Metabolic stability in human liver microsomes in absence of NADPH by LC-MS/MS assay; assay type: ADME, Microsome
[14] = Metabolic stability in human liver microsomes assessed as half life preincubated for 5 mins followed by NADPH addition and measured upto 30 mins by LC-MS/MS assay; assay type: ADME, Microsome; conditions: time < 35 min
[15] = Metabolic stability in mouse liver microsomes in absence of NADPH by LC-MS/MS assay; assay type: ADME, Microsome
[16] = Metabolic stability in mouse liver microsomes assessed as intrinsic clearance per mg protein preincubated for 5 mins followed by NADPH addition and measured upto 30 mins by LC-MS/MS assay; assay type: ADME, Microsome; conditions: time < 35 min, read-out: CLH
[17] = tested on: PTP1B versus M. tuberculosis ptpB; assay: Selectivity index, ratio of IC50 for human PTP1B to Mycobacterium tuberculosis H37Rv ptpB; assay type: toxicity; conditions: read-out: Ratio IC50

| Structure (SMILES) | IC50 [2] | IC50 [3] | inhibition [4] | other results |
| --- | --- | --- | --- | --- |
| CCCC[C@@H](C(=O)O)N1C(=O)/C(=C/c2ccc(-c3cccc(Cl)c3)cn2)SC1=S | 530 nM | 390 nM | – | inhibition [1]: 99.5% |
| CCCC[C@@H](C(=O)O)N1C(=O)/C(=C/c2ccc(-c3cccc(OC)c3)cc2)SC1=S | 750 nM | 430 nM | 100% | – |
| O=C(O)[C@@H](Cc1ccccc1)N1C(=O)/C(=C/c2ccc(-c3ccc(F)c(C(F)(F)F)c3)cc2)SC1=S | – | – | 56.8% | – |
| O=C(O)[C@H](C1CCCCC1)N1C(=O)/C(=C/c2ccc(-c3ccc(F)c(C(F)(F)F)c3)cc2)SC1=S | 490 nM | 5370 nM | 101% | remaining at 0.5 h [5]: 101%; half-life [6]: > 1.55 h; remaining at 0.5 h [7]: 101%; Activity [8]: Dose-Dependent Effect; inhibition [9]: 27.1%; MIC [10]: 30.5 µg/mL (≈ 58.3 µM); IC50 [11]: > 64 µg/mL; microsomal CLint [12]: < 6.1 µL/min/mg; IC50 (Vero): 30.2 µg/mL (≈ 57.7 µM); Stability [13]: Stable; half-life [14]: > 1.55 h; Stability [15]: Stable; microsomal CLint [16]: < 22.1 µL/min/mg |
| CCCC[C@@H](C(=O)O)N1C(=O)/C(=C/c2ccc(-c3cccc(Cl)c3)s2)SC1=S | 440 nM | 160 nM | – | inhibition [1]: 99% |
| CCCC[C@@H](C(=O)O)N1C(=O)/C(=C/c2ccc(-c3cccc(Cl)c3)c3ccccc23)SC1=S | 670 nM | 1530 nM | – | inhibition [1]: 99.9% |
| CCCC[C@@H](C(=O)O)N1C(=O)/C(=C/c2ccc(-c3ccc(Cl)cc3)cc2)SC1=S | 600 nM | 1510 nM | 98.9% | – |
| O=C(O)[C@H](C1CCCCC1)N1C(=O)/C(=C/c2ccc(-c3ccccc3C(F)(F)F)cc2)SC1=S | 920 nM | 1600 nM | 93% | – |
| NNC(=O)c1ccncc1 [ISONIAZID] | – | – | – | MIC [10]: 0.038 µg/mL (≈ 0.277 µM); IC50 [11]: > 64 µg/mL; IC50 (Vero): > 64 µg/mL |
| CCCC[C@@H](C(=O)O)N1C(=O)/C(=C/c2ccc(-c3cccc(C(F)(F)F)c3)c(Cl)c2)SC1=S | 420 nM | 1530 nM | – | inhibition [1]: 99.6% |
| CCCC[C@@H](C(=O)O)N1C(=O)/C(=C/c2ccc(-c3cccc(Cl)c3)cc2)SC1=S | 380 nM | 1870 nM | 102% | selectivity ratio [17]: 5 |
| CCCC[C@@H](C(=O)O)N1C(=O)/C(=C/c2ccc(-c3ccc(Cl)s3)cc2)SC1=S | 430 nM | 200 nM | 98.4% | – |
| O=C(O)[C@H](Cc1ccccc1)N1C(=O)/C(=C/c2ccc(-c3ccc(F)c(C(F)(F)F)c3)cc2)SC1=S | 920 nM | – | 71.3% | – |
| CCCC[C@@H](C(=O)O)N1C(=O)/C(=C/c2ccc(-c3cccc(Cl)c3)c(Cl)c2)SC1=S | 330 nM | 940 nM | – | inhibition [1]: 102% |
| O=C(O)CN1C(=O)/C(=C/c2ccc(-c3ccc(F)c(C(F)(F)F)c3)cc2)SC1=S | 16400 nM | – | 99.4% | – |
| CCCC[C@@H](C(=O)O)N1C(=O)/C(=C/c2ccc(-c3ccc(F)c(C(F)(F)F)c3)cc2)SC1=S | 480 nM | 11300 nM | 106% | remaining at 0.5 h [5]: 96.9%; half-life [6]: > 1.55 h; remaining at 0.5 h [7]: 101%; Activity [8]: Dose-Dependent Effect; selectivity ratio [17]: 20; inhibition [9]: 20.2%; MIC [10]: 31.7 µg/mL (≈ 63.7 µM); IC50 [11]: 47.7 µg/mL (≈ 95.9 µM); microsomal CLint [12]: < 6.1 µL/min/mg; IC50 (Vero): 28.2 µg/mL (≈ 56.7 µM); Stability [13]: Stable; half-life [14]: > 1.55 h; Stability [15]: Stable; microsomal CLint [16]: < 22.1 µL/min/mg |
| CCCC[C@@H](C(=O)O)N1C(=O)/C(=C/c2ccc(-c3cccc(C(F)(F)F)c3)c3ccccc23)SC1=S | 590 nM | 40 nM | – | inhibition [1]: 98.6% |
| O=C(O)[C@H](C1CCCCC1)N1C(=O)/C(=C/c2ccc(-c3ccc(C(F)(F)F)cc3)cc2)SC1=S | 3130 nM | – | 103% | – |
| CCCC[C@H](C(=O)O)N1C(=O)/C(=C/c2ccc(-c3ccc(F)c(C(F)(F)F)c3)cc2)SC1=S | – | – | 26.4% | – |
| CCN(CC)c1ccc(/C=C2\SC(=S)NC2=O)c(OCc2ccc(Cl)cc2Cl)c1 | – | – | > 35% | – |
| CCCC[C@@H](C(=O)O)N1C(=O)/C(=C/c2ccc(-c3ccc(F)c(C(F)(F)F)c3)c3ccccc23)SC1=S | 670 nM | 5540 nM | – | inhibition [1]: 105% |
| O=C(O)[C@H](c1ccccc1)N1C(=O)/C(=C/c2ccc(-c3ccc(F)c(C(F)(F)F)c3)cc2)SC1=S | 2340 nM | – | 97% | – |
| CCCC[C@@H](C(=O)O)N1C(=O)/C(=C/c2ccc(-c3ccccc3)cc2)SC1=S | 620 nM | – | 94% | – |
| CCCC[C@@H](C(=O)O)N1C(=O)/C(=C/c2ccc(-c3ccncc3Cl)cc2)SC1=S | 800 nM | – | 97.1% | – |
| CCCC[C@@H](C(=O)O)N1C(=O)/C(=C/c2ccc(-c3ccc(C(F)(F)F)cc3)cc2)SC1=S | 860 nM | 1340 nM | 100% | – |
| O=C(O)[C@H](C1CCCCC1)N1C(=O)/C(=C/c2ccc(-c3cccc(Cl)c3)cc2)SC1=S | 990 nM | 1120 nM | 106% | – |
| O=C(O)[C@@H](C1CCCCC1)N1C(=O)/C(=C/c2ccc(-c3ccc(F)c(C(F)(F)F)c3)cc2)SC1=S | – | – | 30.5% | – |
| CCCC[C@@H](C(=O)O)N1C(=O)/C(=C/c2ccc(-c3ccc(OC)cc3)cc2)SC1=S | 550 nM | 770 nM | 99.4% | – |
